Assay results as given in US12559769B2, “Methods and compositions for the activation of tumor cytotoxicity via human gamma-delta t-cells” (priority 2017, dated 2026).

Test system: Vγ9Vδ2 T cells
Assay: Activation of Vγ9Vδ2 T cells (TNF-α, flow cytometry) by THP-1 monocytic leukemia cells co-cultured with expanded PBMC
Assay type: cell-based, human
Description: THP-1 cells (2×10^5 cells) were transduced with LV-control or LV-miR30 FDPS #1 (SEQ ID NO: 68) for 7 days. Cells were treated with or without 1 μM zoledronic acid. After 24 hours, the transduced THP-1 cells were co-cultured for 4 hours with 2×10^5 PBMC cells in 5 mL round-bottom tubes. The PBMC cells had been pre-stimulated with zoledronic acid plus IL-2 for at least 11 days to expand Vγ9Vδ2 T cells. After staining for Vγ9Vδ2 and TNF-α using fluorophore-conjugated anti TCR-Vδ2 and anti-TNF-α antibody, cells were analyzed via flow cytometry. Live cells were gated; Vδ2+ and TNF-α+ cells were identified on a dot blot. The activated cytotoxic Vγ9Vδ2 T cells appeared in the upper right quadrant of the flow cytograms. Without zoledronic acid, LV-control stimulated 2.44% of TNF-α expressing Vγ9Vδ2 T cells and LV-miR30 FDPS #1 (SEQ ID NO: 68) stimulated 28.4%. With zoledronic acid treatment, LV-control stimulated 23.8% of TNF-α expressing Vγ9Vδ2 T cells and LV-miR30 FDPS #1 (SEQ ID NO: 68) stimulated 61.4%.
THP-1 cells were transduced with LV-control or LV-FDPS shRNA #4 (SEQ ID NO: 4) or Lv-GGPS1 shRNA #1 (SEQ ID NO: 70) for 3 days. Two days after transduction, cells were treated with or without 1 μM zoledronic acid. After 24 hours, the transduced THP-1 cells were co-cultured for 4 hours with 5×10^5 PBMC cells in a round bottom 96 well plate. The PBMC cells had been pre-stimulated with zoledronic acid plus IL-2 for at least 11 days to expand Vγ9Vδ2 T cells. After staining for Vγ9Vδ2 and TNF-α using fluorophore-conjugated anti TCR-Vδ2 and anti-TNF-α antibody, cells were analyzed via flow cytometry. Live cells were gated; Vδ2+ and TNF-α+ cells were identified on a dot blot. The activated cytotoxic Vγ9Vδ2 T cells appeared in the upper right quadrant of the flow cytograms. Without zoledronic acid, LV-control stimulated 1.33% of TNF-α expressing Vγ9Vδ2 T cells whereas Lv-FDPS shRNA #4 (SEQ ID NO: 4) stimulated 2.49%, Lv-GGPS1 #1 shRNA (SEQ ID NO: 70) stimulated 1.22%, and both combined stimulated 1.91%. With zoledronic acid treatment, Lv-control stimulated 5.74% of TNF-α expressing Vγ9Vδ2 T cells, whereas Lv-FDPS shRNA #4 (SEQ ID NO: 4) stimulated 10.8%, Lv-GGPS1 shRNA #1 (SEQ ID NO: 70) stimulated 4.5%, and both combined stimulated 11.5%.
ZA is a small molecule inhibitor of squalene synthase in the pathway committed to sterol synthesis. THP-1 cells were treated with either the FDPS inhibitor Zol (10 μM), the famesyl transferase inhibitor FTI (10 μM), or ZA (50 μM) for 24 hours. THP-1 cells (2.5×10^5) were co-cultured with 2.5×10^5 PBMC cells in a round bottom 96 well plate for 5 hours. The PBMC cells had been pre-stimulated with zoledronic acid plus IL-2 for at least 11 days to expand Vγ9Vδ2 T cells. After staining for Vγ9Vδ2 and TNF-α using fluorophore-conjugated anti TCR-Vδ2 and anti-TNF-α antibody, cells were analyzed via flow cytometry. Live cells were gated; Vδ2+ and TNF-α+ cells were identified on a dot blot. The activated cytotoxic Vγ9Vδ2 T cells appeared in the upper right quadrant of the flow cytograms. Untreated cells stimulated 3.08% of TNF-α expressing Vγ9Vδ2 T cells, whereas zoledronic acid treatment stimulated 40.1%, FT1277 treatment stimulated 11.7%, and zaragozic acid stimulated 2.13%.

[1] = Example 24, FIG. 28, THP-1 cells treated 10 μM for 24 hours, untreated cells 3.08%

Row | SMILES | percent of TNF-α expressing Vγ9Vδ2 T cells [1] | percent of TNF-α expressing Vγ9Vδ2 T cells (Example 17, LV-control transduced THP-1 cells, 1 μM zoledronic acid) | percent of TNF-α expressing Vγ9Vδ2 T cells (Example 21, Lv-control transduced THP-1 cells, 1 μM zoledronic acid) | percent of TNF-α expressing Vγ9Vδ2 T cells (Example 24, FIG. 28, THP-1 cells treated 50 μM for 24 hours, untreated cells 3.08%)
1 | COC(=O)[C@H](CCSC)NC(=O)c1ccc(NC[C@@H](N)CS)cc1-c1ccccc1 [FT1277] | 11.7% | – | – | –
2 | O=P(O)(O)C(O)(Cn1ccnc1)P(=O)(O)O [zoledronic acid] | 40.1% | 23.8% | 5.74% | –
3 | C=C(CC[C@]12O[C@H](C(=O)O)[C@@](O)(C(=O)O)[C@](C(=O)O)(O1)[C@H](OC(=O)/C=C/[C@@H](C)C[C@@H](C)CC)[C@H]2O)[C@@H](OC(C)=O)[C@H](C)Cc1ccccc1 [zaragozic acid] | – | – | – | 2.13%
